Earlier results as cited in patent US20070185067A1, “Ciclesonide and glycopyrronium combination” (Altana Pharma AG, priority 2004, published 2007).

How the values were obtained:
[1] = compared with budesonide
[2] = not given; remark: listed apart in the source

CC(C)C(=O)OCC(=O)[C@@]12O[C@H](C3CCCCC3)O[C@@H]1C[C@H]1[C@@H]3CCC4=CC(=O)C=C[C@]4(C)[C@H]3[C@@H](O)C[C@@]12C [Ciclesonide, [11β,16α(R)]-16,17-[(Cyclohexylmethylen)bis(oxy)]-11-hydroxy-21-(2-methyl-1-oxo-prop-oxy)pregna-1,4-dien-3,20-dion]
anti-inflammatory activity relative to budesonide [1]: higher
metabolism by liver oxidases (liver oxidases): very high
concentration of the drug in the lungs (lungs): high
absorption after oral administration (oral administration): only moderately absorbed
plasma half-life (plasma): low plasma half-life
systemic activity relative to budesonide ([2]; compared with budesonide): three times lower than that of budesonide
systemic activity ([2]; in vivo): low systemic activity
